Laboratory results from US20240199701A1, “IMMUNOMODULATORS” (BRISTOL-MYERS SQUIBB COMPANY, priority 2021, published 2024).
Where two headings read alike, the source gives them in different places. Starred links: 1 amine or outer side, 2 acyl side, 3 side chain; linkers in the order of their positions; H or OH if unused. Positions of bridges follow the written chain, without caps; N, C: chain ends. Non-standard residues stand in square brackets, D forms with d. Groups on a side chain read outwards from the residue. Primed or numbered codes have the meaning given here. *: point of attachment. Trp(1-CH2CO) = O=C([C@H](Cc1cn(CC(=O)[*:3])c2ccccc12)N[*:1])[*:2]; Pra′ = C-terminal residue bearing an alkyne, joined as triazole; Hexadecanoyl(16-SO3H) = O=C(CCCCCCCCCCCCCCCS(=O)(=O)O)*; γGlu = O=C(O)[C@H](CCC(=O)[*:2])N[*:1]; Hyp = O=C(O)[C@@H]1C[C@@H](O)CN1; NMeNle = CCCC[C@H](NC)C(=O)O; PEG11′ = not defined here; NMeA = CN[C@@H](C)C(=O)O; Dab = NCC[C@H](N)C(=O)O; Dap = NC[C@H](N)C(=O)O

Experiments:
PD-1-Ig/PD-L1-His = target: T1, PD-1-Ig/PD-L1-His (Homo sapiens, UniProt Q9NZQ7); test: PD-1/PD-L1 Homogenous Time-Resolved Fluorescence (HTRF) binding assay
T1 construct: hPDL1(19-239)-TVMV-His; TVMV protease cleavage site (C); made in house; host or cells: HEK293T
Source text: The ability of the macrocyclic peptides of the present disclosure to bind to PD-L1 was investigated using a PD-1/PD-L1 Homogenous Time-Resolved Fluorescence (HTRF) binding assay.
Homogenous Time-Resolved Fluorescence (HTRF) Assays of Binding of Soluble PD-1 to Soluble PD-L1. Soluble PD-1 and soluble PD-L1 refers to proteins with carboxyl-end truncations that remove the transmembrane-spanning regions and are fused to heterologous sequences, specifically the Fc portion of the human immunoglobulin G sequence (Ig) or the hexahistidine epitope tag (His). All binding studies were performed in an HTRF assay buffer consisting of dPBS supplemented with 0.1% (w/v) bovine serum albumin and 0.05% (v/v) Tween-20. For the PD-1-Ig/PD-L1-His binding assay, inhibitors were pre-incubated with PD-L1-His (10 nM final) for 15 m in 4 μl of assay buffer, followed by addition of PD-1-Ig (20 nM final) in 1 μl of assay buffer and further incubation for 15 m. PD-L1 fusion proteins from either human, cynomologous macaques, mouse, or other species were used. HTRF detection was achieved using europium crypate-labeled anti-Ig monoclonal antibody (1 nM final) and allophycocyanin (APC) labeled anti-His monoclonal antibody (20 nM final). Antibodies were diluted in HTRF detection buffer and 5 μl was dispensed on top of binding reaction. The reaction was allowed to equilibrate for 30 minutes and signal (665 nm/620 nm ratio) was obtained using an EnVision fluorometer. Additional binding assays were established between PD-1-Ig/PD-L2-His (20 and 5 nM, respectively), CD80-His/PD-L1-Ig (100 and 10 nM, respectively) and CD80-His/CTLA4-Ig (10 and 5 nM, respectively).
Recombinant Proteins. Carboxyl-truncated human PD-1 (amino acids 25-167) with a C-terminal human Ig epitope tag [hPD-1 (25-167)-3S-IG] and human PD-L1 (amino acids 18-239) with a C-terminal His epitope tag [hPD-L1(19-239)-tobacco vein mottling virus protease cleavage site (TVMV)-His] were expressed in HEK293T cells and purified sequentially by recombinant Protein A affinity chromatography and size exclusion chromatography. Human PD-L2-His (Sino Biologicals), CD80-His (Sino Biologicals), CTLA4-Ig (RnD Systems) were all obtained through commercial sources.

[1] = target: T2, 293T-hPD-L1 cells (binding of PE-labeled PD-1-Ig to human PD-L1) (Homo sapiens, UniProt Q9NZQ7); test: 293T-hPD-L1 Cell Binding High-Content Screening Assay (CBA); format: cell-based; settings: 293T cells over-expressing human PD-L1, PE-labeled PD-1-Ig 0.5 nM, 10% fetal calf serum; read-out: 293T-hPD-L1_PD-1 IC50
T2 construct: expressed in transfected cells
Protocol: 293T-hPD-L1 Cell Binding High-Content Screening Assay (CBA). Phycoerythrin (PE) was covalently linked to the Ig epitope tag of human PD-1-Ig and fluorescently-labeled PD-1-Ig was used for binding studies with a human embryonic kidney cell line (293T) stably over-expressing human PD-L1 (293T-hPD-L1). Briefly, 2×10^3 293T-hPD-L1 cells were seeded into 384 well plates in 20 μl of DMEM supplemented with 10% fetal calf serum and cultured overnight. 125 nl of compound was added to cells followed by 5 μl of PE-labeled PD-1-Ig (0.5 nM final), diluted in DMEM supplemented with 10% fetal calf serum, followed by incubation at 37° C. for Ih. Cells were washed 3× in 100 μl dPBS followed by fixation with 30 μl of 4% paraformaldehyde in dPBS containing 10 μg/ml Hoechst 33342 for 30 min at room temperature. Cells were washed 3× in 100 μl of dPBS followed by final addition of 15 μl of dPBS. Data was collected and processed using a Cell Insight NXT High Content Imager and associated software.

[2] = target: Recombinant Human PD-L1-TVMV-His, hPDL1(19-239)-TVMV-His (human) (UniProt Q9NZQ7); test: HTRF competition, inhibits PD-1-Ig binding to PD-L1-His
[3] = soluble hPD-1-Ig / hPD-L1-His, HTRF, read-out: LE HTRF hPD1 hPDL1 IC50

T2 sequence (Q9NZQ7 19-290): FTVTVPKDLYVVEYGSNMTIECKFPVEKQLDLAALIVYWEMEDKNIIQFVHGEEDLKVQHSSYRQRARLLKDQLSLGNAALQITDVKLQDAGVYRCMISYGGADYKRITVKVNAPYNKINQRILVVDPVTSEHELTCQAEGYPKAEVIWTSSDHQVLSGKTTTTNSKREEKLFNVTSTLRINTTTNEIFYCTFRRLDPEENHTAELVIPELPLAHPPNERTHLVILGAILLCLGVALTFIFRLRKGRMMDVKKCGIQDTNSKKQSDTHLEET
Chain of Recombinant Human PD-L1-TVMV-His, hPDL1(19-239)-TVMV-His (human) (Q9NZQ7 other isoform, or with tags, fused parts or gaps limits assumed): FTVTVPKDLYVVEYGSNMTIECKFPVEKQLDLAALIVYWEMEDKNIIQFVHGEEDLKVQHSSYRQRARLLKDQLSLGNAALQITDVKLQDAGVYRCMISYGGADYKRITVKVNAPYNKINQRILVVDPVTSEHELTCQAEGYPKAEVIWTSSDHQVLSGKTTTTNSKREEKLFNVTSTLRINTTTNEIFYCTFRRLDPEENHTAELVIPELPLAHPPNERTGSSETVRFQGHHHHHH

| Molecule | IC50 (PD-1-Ig/PD-L1-His; [3]) [nM] | IC50 [1] [nM] | also measured |
| --- | --- | --- | --- |
| CCCC[C@H]1C(=O)N(C)[C@@H](CCCC)C(=O)N[C@@H](CC(C)C)C(=O)N[C@H](C(=O)N[C@@H](C)C(=O)N[C@@H](Cc2cn(CCOCCOCCOCCOCCOCCOCCOCCOCCOCCOCCOCCNC(=O)CC[C@H](NC(=O)CCCCCCCCCCCCCCCS(=O)(=O)O)C(=O)O)nn2)C(=O)O)CSCC(=O)N[C@@H](Cc2ccc(O)cc2)C(=O)N(C)[C@@H](C)C(=O)N[C@@H](CC(N)=O)C(=O)N2CCC[C@H]2C(=O)N[C@@H](CN)C(=O)N[C@@H](CC(C)C)C(=O)N2C[C@H](O)C[C@H]2C(=O)N[C@@H](Cc2c[nH]c3ccccc23)C(=O)N[C@@H](CCN)C(=O)N[C@@H](Cc2cn(CC(=O)O)c3ccccc23)C(=O)N1C [Example 1002] | 2 | 0.1 |  |
| CCCC[C@H]1C(=O)N(C)[C@@H](CCCC)C(=O)N[C@@H](CC(C)C)C(=O)N[C@H](C(=O)N[C@@H](CCCN)C(=O)N[C@@H](Cc2cn(CCOCCOCCOCCOCCOCCOCCOCCOCCOCCOCCOCCNC(=O)CC[C@H](NC(=O)CCCCCCCCCCCCCCCS(=O)(=O)O)C(=O)O)nn2)C(=O)O)CSCC(=O)N[C@@H](Cc2ccc(O)cc2)C(=O)N(C)[C@@H](C)C(=O)N[C@@H](CC(N)=O)C(=O)N2CCC[C@H]2C(=O)N[C@@H](CN)C(=O)N[C@@H](CC(C)C)C(=O)N2C[C@H](O)C[C@H]2C(=O)N[C@@H](Cc2c[nH]c3ccccc23)C(=O)N[C@@H](CCN)C(=O)N[C@@H](Cc2cn(CC(=O)O)c3ccccc23)C(=O)N1C [Example 1003] | 38.1 |  |  |
| CCCC[C@H]1C(=O)N(C)[C@@H](CCCC)C(=O)N[C@@H](CC(C)C)C(=O)N[C@H](C(=O)NCC(=O)N[C@@H](Cc2cn(CCOCCOCCNC(=O)[C@H](CCC(=O)O)NC(=O)CC[C@H](NC(=O)CCCCCCCCCCCCCCCS(=O)(=O)O)C(=O)O)nn2)C(=O)O)CSCC(=O)N[C@@H](Cc2ccc(O)cc2)C(=O)N(C)[C@@H](C)C(=O)N[C@@H](CC(N)=O)C(=O)N2CCC[C@H]2C(=O)N[C@@H](CN)C(=O)N[C@@H](CC(C)C)C(=O)N2C[C@H](O)C[C@H]2C(=O)N[C@@H](Cc2c[nH]c3ccccc23)C(=O)N[C@@H](CCN)C(=O)N[C@@H](Cc2cn(CC(=O)O)c3ccccc23)C(=O)N1C [Example 1006] |  | 61.8 |  |
| CCCC[C@H]1C(=O)N(C)[C@@H](CCCC)C(=O)N[C@@H](CC(C)C)C(=O)N[C@H](C(=O)NCC(=O)N[C@@H](Cc2cn(CCOCCOCCOCCOCCOCCOCCOCCOCCOCCOCCOCCNC(=O)CC[C@H](NC(=O)CCCCCCCCCCCCCCCP(=O)(O)O)C(=O)O)nn2)C(=O)O)CSCC(=O)N[C@@H](Cc2ccc(O)cc2)C(=O)N(C)[C@@H](C)C(=O)N[C@@H](CC(N)=O)C(=O)N2CCC[C@H]2C(=O)N[C@@H](CN)C(=O)N[C@@H](CC(C)C)C(=O)N2C[C@H](O)C[C@H]2C(=O)N[C@@H](Cc2c[nH]c3ccccc23)C(=O)N[C@@H](CCN)C(=O)N[C@@H](Cc2cn(CC(=O)O)c3ccccc23)C(=O)N1C [Example 1007] |  |  | IC50 (PD-1-Ig/PD-L1-His): 14 nM |
| CCCC[C@H]1C(=O)N(C)[C@@H](CCCC)C(=O)N[C@@H](CC(C)C)C(=O)N[C@H](C(=O)NCC(=O)N[C@@H](Cc2cn(CCOCCOCCOCCOCCOCCOCCOCCOCCOCCOCCOCCNC(=O)CC[C@H](NC(=O)CCCCCCCCCCCCCCCS(=O)(=O)O)C(=O)O)nn2)C(=O)O)CSCC(=O)N[C@@H](Cc2ccc(O)cc2)C(=O)N(C)[C@@H](C)C(=O)N[C@@H](CC(N)=O)C(=O)N2CCC[C@H]2C(=O)N[C@@H](CN)C(=O)N[C@@H](CC(C)C)C(=O)N2C[C@H](O)C[C@H]2C(=O)N[C@@H](Cc2c[nH]c3ccccc23)C(=O)N[C@@H](CCN)C(=O)N[C@@H](Cc2cn(CC(=O)O)c3ccccc23)C(=O)N1C [Example 1008] | 7.3 | 1.2 |  |
| CCCC[C@H]1C(=O)N(C)[C@@H](CCCC)C(=O)N[C@@H](CC(C)C)C(=O)N[C@H](C(=O)NCC(=O)N[C@@H](Cc2cn(CCOCCOCCOCCNC(=O)CC[C@H](NC(=O)CCCCCCCCCCCS(=O)(=O)O)C(=O)O)nn2)C(=O)O)CSCC(=O)N[C@@H](Cc2ccc(O)cc2)C(=O)N(C)[C@@H](C)C(=O)N[C@@H](CC(N)=O)C(=O)N2CCC[C@H]2C(=O)N[C@@H](CN)C(=O)N[C@@H](CC(C)C)C(=O)N2C[C@H](O)C[C@H]2C(=O)N[C@@H](Cc2c[nH]c3ccccc23)C(=O)N[C@@H](CCN)C(=O)N[C@@H](Cc2cn(CC(=O)O)c3ccccc23)C(=O)N1C [Example 1010] |  | 0.13 |  |
| {CH2CO}-Y[NMeA]NP[Dap]L[Hyp]W[Dab][Trp(1-CH2CO)][NMeNle][NMeNle]LC[Pra′]([PEG11′-γGlu-Hexadecanoyl(16-SO3H)])-OH (thioether N-14; also: Pra linked to Peg11 via triazole) [Example 1001] |  |  | IC50 [2]: 0.6 nM |
